From ChEMBL document CHEMBL1138161, “Structure-activity relationships of alpha-amino acid ligands for the alpha2delta subunit of voltage-gated calcium channels” (Bioorg Med Chem Lett, 2006)

Tests used:
[1] = Concentration in rat brain after 0.75 h at 100 umol/kg, po; format: ADME, organism-based; settings: read-out: Drug uptake
Rattus norvegicus [2] = assay: Potency against persistent inflammatory pain in orally dosed rat CFA model; format: functional; settings: po
Rattus norvegicus [3] = assay: Maximum efficacy in rat CFA model at 300 umol/kg; format: functional

N[C@H](C(=O)O)c1ccccc1
concentration at 0.75 h [1]: 6300 ng/g | ED50 (Rattus norvegicus [2]): 100 µmol/kg

NCC1(CC(=O)O)CCCCC1 [GABAPENTIN]
concentration at 0.75 h [1]: 3410 ng/g | ED50 (Rattus norvegicus [2]): 125 µmol/kg

NC(C(=O)O)c1cccc(Cl)c1 (stereo not given)
concentration at 0.75 h [1]: 1760 ng/g | Efficacy (Rattus norvegicus [3]): 64%

N[C@@H](CC1CCCCC1)C(=O)O
ED50 (Rattus norvegicus [2]): 200 µmol/kg

N[C@@H](CCSCc1ccccc1)C(=O)O
concentration at 0.75 h [1]: 430 ng/g | ED50 (Rattus norvegicus [2]): 120 µmol/kg

NC(CCSCc1ccc(Br)cc1)C(=O)O (stereo not given)
ED50 (Rattus norvegicus [2]): > 300 µmol/kg
